Blank lines part the entries; values can stand above or below the substance they belong to.
What was measured:
DQ8 antigens = test: Binding to DQ8 antigens
[1] = test system: Soluble NBI-6024 induced T cells (IL-2, IL-4, IL-5 production); test: Cytokine production by NBI-6024 induced T cells (ELISA); format: cell-based, NOD mouse; conditions: for Cytokine IL-2: 48 h supernatant
Procedure: FIG. 18 is a histogram, showing a comparison of the cytokines produced by immune cells induced by A^16,19 (NBI-6024) peptide in the presence or absence of adjuvant. Groups of NOD mice were immunized with the NBI-6024 alone or emulsified with CFA. The cytokines IL-2 and IL-4, as indicated, were measured at 25 μM of NBI-6024 and expressed as pg/mL after subtracting the background values.
To determine the type of T cells produced following soluble administration of NBI-6024, the culture supernatants from immune lymphoid cells were removed 48 hours following the initiation of culture and the levels of various cytokines measured using standard ELISA technology. […] Within Table 8, values are expressed in pg/ml as mean of triplicates±SEM.

[2] = test system: Murine NOD T cell clone PD12-2.40 response to insulin B chain (9-23) peptide; test: Antagonism of T cell proliferation assay, clone PD12-2.40; format: cell-based, mouse (NOD); conditions: for % Inhibition: N/A = no inhibition observed
Procedure: (§1) Peptide analogues of B chain (9-23) containing alanine substitutions at residue 12, 13, 15 or 16 or the doubly substituted peptide at positions 16 and 19 (A^16,19; NBI-6024) were prepared as described in Example 1. T cell antagonism was detected by evaluating the ability of the peptide analogues to inhibit T cell proliferation induced by native B chain (9-23) (SEQ ID NO:2). In this assay, antigen presenting cells were first irradiated and then incubated with the competing peptide analogue and the native B chain (9-23) peptide. T cells were then added to the culture. Various concentrations of candidate peptide analogues were included in cultures which were incubated for a total of 4 days. Following this incubation period, each culture was pulsed with 1 μCi of [^3H]-thymidine for an additional 12-18 hours. Cultures were then harvested on fiberglass filters and counted as above. Mean CPM and standard error of the mean were calculated from data determined in triplicate cultures.
(§2) Within Table 4, the control peptide, NBI-5096, is an unrelated peptide from myelin basic protein. The percent inhibition was calculated as: (1−experimental cpm/insulin peptide cpm)×100%.

[3] = test system: Murine NOD T cell clone PD12-2.35 response to insulin B chain (9-23) peptide; test: Antagonism of T cell proliferation assay, clone PD12-2.35; format: cell-based, mouse (NOD); conditions: for % Inhibition: N/A = no inhibition observed
Procedure: as §1, §2

[4] = test system: Insulin specific NOD T cell clone PD12-4.4; test: Proliferation of insulin-specific NOD T cell clone PD12-4.4; format: cell-based, mouse (NOD); conditions: 50 μg/ml peptide, 72 h, 3H-thymidine; no antigen 350 cpm
Procedure: (§3) Insulin specific NOD T cell lines were established by culturing lymphocytes isolated from islet-infiltrating populations by in vitro stimulation with either porcine insulin at 25 μg/ml and irradiated NOD islet cell in the presence of irradiated NOD spleen cells as antigen presenting cells and cytokines. To obtain the infiltrating lymphocytes the following procedures were performed (see Wegmann et al., Eur. J. Immunol. 24:1853, 1994): the pancreas from the NOD mouse was digested with collagenase and individual islets were isolated manually. The infiltrating lymphocytes were then obtained by mild trypsin digestion of the islets. The insulin specific T cell lines or clones were propagated by serial stimulation in the presence of NOD spleen cells, porcine insulin and lymphokines. Clones were obtained by limiting dilution of the B chain (9-23) specific T cell lines in the presence of the antigen presenting cells and porcine insulin at 25 μg/ml. Wells with a growing population of cells following limiting dilution were expanded in appropriate medium, and after one cycle of growth were tested for reactivity to the B chain (9-23) peptide of insulin by evaluating the proliferative response.
(§4) Insulin B chain (9-23) (SEQ ID NO:2) specific mouse (NOD) T cell clones were isolated from infiltrated islets as described in Example 2. Peptide analogues with single alanine substitutions were prepared as described in Example 1. The effect of each analogue on T cell proliferation was then evaluated using an assay performed in 96-well flat bottom microtiter plates (see Daniel et al., Eur. J. Immunol. 25:1056, 1995). Briefly 25,000 T cell clones along with 1 million irradiated NOD spleen cells were cultured in the presence of 50 μg/ml of insulin B chain 9-23 peptide or any of the alanine substituted peptides listed below in triplicate sets. The plates were incubated for a total of 72 hours in 7% carbon dioxide atmosphere with a pulse of 1 μCi/well of tritiated thymidine for the last 6-8 hours of culture. Cells were harvested on a glass fiber filter and the associated radioactivity was counted in a liquid scintillation counter. Results are expressed as mean counts per minute of triplicate wells.

[5] = test system: Insulin specific NOD T cell clone PD12-4.29; test: Proliferation of insulin-specific NOD T cell clone PD12-4.29; format: cell-based, mouse (NOD); conditions: 50 μg/ml peptide, 72 h, 3H-thymidine; no antigen 789 cpm
Procedure: as §3, §4

[6] = test system: Insulin specific NOD T cell clone PD6-4.3; test: Proliferation of insulin-specific NOD T cell clone PD6-4.3; format: cell-based, mouse (NOD); conditions: 50 μg/ml peptide, 72 h, 3H-thymidine; no antigen 163 cpm
Procedure: as §3, §4

[7] = test system: Insulin specific NOD T cell clone PD12-4.34; test: Proliferation of insulin-specific NOD T cell clone PD12-4.34; format: cell-based, mouse (NOD); conditions: 50 μg/ml peptide, 72 h, 3H-thymidine; no antigen 231 cpm
Procedure: as §3, §4

[8] = soluble NBI-6024 induced T cells cultured with NBI-6024 5 μM
[9] = soluble NBI-6024 induced T cells cultured with NBI-6024 25 μM
[10] = B(9-23) 5 μM + 10 μM competing peptide
[11] = B(9-23) 5 μM + 50 μM competing peptide

Binding affinity to DQ8 antigens (DQ8 antigens): binds with similar affinity
Substance: NBI-6024: insulin B chain 9-23 with alanine substitutions at positions 16 and 19 (SHLVEALALVAGERG)
Cytokine production profile ([1]; NBI-6024 emulsified with CFA (control)): did induce the expected Th1-cytokine profile (IL-2) | Cytokine production profile ([1]; T cells from mice immunized with soluble NBI-6024): produced the Th2 cytokines, interleukin-4 (FIG. 18) and interleukin-5 (Table 8), and not the Th1-derived interleukin-2 | Cytokine IL-4 ([1]; soluble NBI-6024 induced T cells cultured with NBI-6024 1 μM, 0: 134 ± 0): 684 ± 92 pg/mL | Cytokine IL-5 ([1]; soluble NBI-6024 induced T cells cultured with NBI-6024 1 μM, 0: 1,814 ± 332): 9,999 ± 503 pg/ml | Cytokine IL-2 ([1]; soluble NBI-6024 induced T cells cultured with NBI-6024 1 μM): <15 pg/mL | Cytokine IL-4 [1, 8]: 1,653 ± 51 pg/ml | Cytokine IL-5 [1, 8]: 23,496 ± 684 pg/ml | Cytokine IL-2 [1, 8]: <15 pg/mL | Cytokine IL-4 [1, 9]: 2,102 ± 85 pg/ml | Cytokine IL-5 [1, 9]: 28,062 ± 141 pg/ml | Cytokine IL-2 [1, 9]: <15 pg/mL | CPM ± SEM [2, 10]: 6,379 ± 1,485 CPM | % Inhibition [2, 10]: 30.0% | CPM ± SEM [2, 11]: 4,305 ± 941 CPM | % Inhibition [2, 11]: 52.9% | CPM ± SEM [3, 10]: 4,441 ± 626 CPM | % Inhibition [3, 10]: 43.0% | CPM ± SEM [3, 11]: 1,389 ± 218 CPM | % Inhibition [3, 11]: 82.0%

Substance: Native 9-23: native peptide, residues 9-23 of human insulin B chain (SEQ ID NO:2) (SHLVEALYLVCGERG; Residues 9-23 of human insulin B chain; listed as Homo sapiens) [reference compound]
Response (cpm) of T cell clone PD12-4.4 [4]: 10000 cpm | Response (cpm) of T cell clone PD12-4.29 [5]: 14820 cpm | Response (cpm) of T cell clone PD6-4.3 [6]: 10463 cpm | Response (cpm) of T cell clone PD12-4.34 [7]: 3614 cpm | CPM ± SEM ([2]; B(9-23) 5 μM alone, medium only 305 ± 13): 9,149 ± 1,062 CPM | CPM ± SEM ([3]; B(9-23) 5 μM alone, medium only 213 ± 17): 7,840 ± 528 CPM

— US20040082503A1, “Methods for treatment of diabetes using peptide analogues of insulin” (Neurocrine Biosciences, Inc., priority 1998, published 2004)
